Patent US9688765B2, “Methods using RANK/RANKL antagonist antibodies for treating pain” (Antecip Bioventures II LLC, priority 2014, dated 2017)

Legend:
RANKL expression = conditions: cultured bone marrow stromal cell line; cited from earlier work
[1] = test system: arthritis pain (mechanical hyperalgesia); assay: Rat complete Freund's adjuvant (CFA) model of arthritis pain; type: in vivo; conditions: day 14 post CFA
Experimental: The effect of RANK/RANKL antagonism on arthritis pain was examined in the rat complete Freund's adjuvant (CFA) model of arthritis pain. In this model, injection of 100% complete Freund's adjuvant (CFA) in a 75 μL volume into the left hind paws is followed by a 10-14 day period to allow for the development of arthritis pain. Animals were orally administered zoledronic acid 9 mg/kg (or 54 mg/m^2), or zoledronic acid 60 mg/kg (or 360 mg/m^2) to produce RANK/RANKL antagonism, divided in three equal daily doses on the first three days post CFA injection, or vehicle (control). Drug was dissolved in distilled water and prepared fresh daily. Animals were fasted prior to dosing.
Arthritis pain (mechanical hyperalgesia) in the vehicle and drug-treated animals was evaluated on day 14 post CFA injection using a digital Randall-Selitto device (dRS; IITC Life Sciences, Woodland Hills, Calif.). […] Paw compression threshold was measured by applying increasing pressure to the plantar surface of the hind paw with a dome-shaped tip placed between the 3rd and 4th metatarsus. […]
Reversal of arthritis pain in the ipsilateral (CFA-injected) paw was calculated according to the formula: % reversal=(ipsilateral drug threshold−ipsilateral vehicle threshold)/(contralateral vehicle threshold−ipsilateral vehicle threshold)×100. […]

neuropathic pain = assay: Treatment of patient suffering from neuropathic pain; type: in vivo, human; conditions: patient one, 60 mg subcutaneously, within 6 months after treatment
Experimental: PROLIA® (denosumab, 60 mg) is administered subcutaneously to a patient suffering from neuropathic pain. […] The injection is repeated every six months.

low back pain = assay: Treatment of patient suffering from low back pain; type: in vivo, human; conditions: patient two, 60 mg subcutaneously, within 6 months after treatment
Experimental: PROLIA® (denosumab, 60 mg) is administered subcutaneously to a patient suffering from low back pain. […] The injection is repeated every six months. IMBRUVICA® (ibrutinib, 420 mg taken orally once daily (three 140 mg capsules once daily)) is administered to a patient suffering from low back pain. […] IMBRUVICA® (ibrutinib, 560 mg taken orally once daily, (four 140 mg capsules once daily)) is administered to a patient suffering from low back pain.

[2] = test system: complex regional pain syndrome; assay: Treatment of patient suffering from complex regional pain syndrome; type: in vivo, human; conditions: patient one, 60 mg subcutaneously, within 6 months after treatment
Experimental: PROLIA® (denosumab, 60 mg) is administered subcutaneously to a patient suffering from complex regional pain syndrome. […] The injection is repeated every six months.

[3] = test system: pain associated with arthritis; assay: Treatment of patient suffering from pain associated with arthritis; type: in vivo, human; conditions: patient two, 60 mg subcutaneously, within 6 months after treatment
Experimental: PROLIA® (denosumab, 60 mg) is administered subcutaneously to a patient suffering from pain associated with arthritis. […] IMBRUVICA® (ibrutinib, 420 mg taken orally once daily (three 140 mg capsules once daily)) is administered to a patient suffering from pain associated with arthritis. […] IMBRUVICA® (ibrutinib, 560 mg taken orally once daily, (four 140 mg capsules once daily)) is administered to a patient suffering from pain associated with arthritis.

[4] = test system: pain associated with osteoarthritis; assay: Treatment of patient suffering from pain associated with osteoarthritis; type: in vivo, human; conditions: patient one, 60 mg subcutaneously, within 6 months after treatment
Experimental: PROLIA® (denosumab, 60 mg) is administered subcutaneously to a patient suffering from pain associated with osteoarthritis. […] The injection is repeated every six months. IMBRUVICA® (ibrutinib, 420 mg taken orally once daily (three 140 mg capsules once daily)) is administered to a patient suffering from pain associated with osteoarthritis. […] IMBRUVICA® (ibrutinib, 560 mg taken orally once daily, (four 140 mg capsules once daily)) is administered to a patient suffering from pain associated with osteoarthritis.

Compound: O=P(O)(O)C(O)(Cc1cnc2ccccn12)P(=O)(O)O [Minodronic acid, minodronic acid]
- RANKL expression (RANKL expression): inhibit[] RANKL expression

Compound: O=P(O)(O)C(O)(Cn1ccnc1)P(=O)(O)O [zoledronic acid]
- reversal of arthritis pain ([1]; oral 9 mg/kg (54 mg/m^2) total in three daily doses): 33%
- reversal of arthritis pain ([1]; oral 60 mg/kg (360 mg/m^2) total in three daily doses): 54%

Compound: denosumab [PROLIA]
- pain experienced by patient (neuropathic pain): less pain
- pain experienced by patient (low back pain): less pain
- pain experienced by patient [2]: less pain
- pain experienced by patient [3]: less pain
- pain experienced by patient [4]: less pain
